Reference: patent US7008636B2, “2,3,5-substituted biphenyls useful in the treatment of insulin resistance and hyperglycemia” (Wyeth, priority 1998, dated 2006)
pIC50: −log10 of the molar value.

Key:
[1] = target: T1, recombinant, human protein tyrosine phosphatase (PTP) 1B (hPTP1B) (Homo sapiens, UniProt P18031); assay: Inhibition of tri-phosphorylated insulin receptor dodecaphosphopeptide dephosphorylation by hPTP1B; type: biochemical; conditions: 50 μM IR triphosphopeptide substrate, 5 min preincubation and 5 min reaction at 37° C., malachite green-ammonium molybdate phosphate detection
T1 construct: made in house
T1 sequence (P18031 1-435): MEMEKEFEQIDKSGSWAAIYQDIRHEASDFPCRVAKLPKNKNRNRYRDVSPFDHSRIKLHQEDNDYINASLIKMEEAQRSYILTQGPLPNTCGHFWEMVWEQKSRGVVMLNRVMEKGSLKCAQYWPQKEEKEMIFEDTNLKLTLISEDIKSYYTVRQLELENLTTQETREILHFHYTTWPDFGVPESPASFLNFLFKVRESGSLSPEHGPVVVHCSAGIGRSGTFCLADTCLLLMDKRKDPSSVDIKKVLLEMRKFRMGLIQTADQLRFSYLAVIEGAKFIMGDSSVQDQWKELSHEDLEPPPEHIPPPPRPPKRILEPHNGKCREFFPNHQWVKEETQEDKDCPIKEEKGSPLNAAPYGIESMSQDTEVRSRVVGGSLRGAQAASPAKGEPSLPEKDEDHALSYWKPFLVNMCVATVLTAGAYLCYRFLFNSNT

| SMILES | pIC50 [1] | melting point |
| --- | --- | --- |
| O=C(O)COc1c(-c2cc(Cl)cc(Cl)c2)cc(C(=O)NCCCCCCc2ccccc2)cc1-c1cc(Cl)cc(Cl)c1 [Example 161, [3,5,3″,5″-Tetrachloro-5′-(6-phenyl-hexylcarbamoyl)-[1,1′;3′,1″]terphenyl-2′-yloxy]acetic acid] | 7.48 | 151 to 159 °C |
| O=C(O)COc1c(-c2cccc(Cl)c2)cc(C(=O)NCCCCCCCCn2ccc3cc(F)ccc32)cc1-c1cccc(Cl)c1 [Example 96, {3,3″-Dichloro-5′-[8-(5-fluoro-indol-1-yl)-octylcarbamoyl]-[1,1′;3′1″]terphenyl-2′-yloxy}acetic acid] | 6.86 | 141 to 144 °C |
| CCCCCCCCCCCCNC(=O)c1cc(-c2ccc(OC)cc2)c(OCC(=O)O)c(-c2cccc(Cl)c2)c1 [Example 10, (3-Chloro-5′-dodecylcarbamoyl-4″-methoxy-[1,1°;3′]terphenyl-2′-yloxy)-acetic acid] | 6.99 | 114 to 117 °C |
| O=C(O)COc1c(-c2cccc(Cl)c2)cc(C(=O)NCCCCCCc2ccccc2)cc1-c1cccc(Cl)c1 [Example 80, [3,3″-Dichloro-5′-(6-phenyl-hexylcarbamoyl)-[1,1′;3′,1″]terphenyl-2′-yloxy]acetic acid] | 6.22 | 178 to 181 °C |
| COc1cccc(-c2cc(C(=O)NCCCCCCCCc3ccccc3)cc(-c3cccc(OC)c3OCC(=O)O)c2)c1 [Example 17, [3,3″-Dimethoxy-5′-(8-phenyl-octylcarbamoyl)-[1,1′;3′,1″]terphenyl-2-yloxy]-acetic acid] | 6.55 | 67.3 to 68.7 °C |
| CCCCCCCCCCCCCCOc1cc(-c2ccccc2)c(OCC(=O)O)c(-c2ccccc2)c1 [Example 173, (5′-Tetradecyloxy-[1,1′;3′,1″]terphenyl-2′-yloxy)acetic acid] | 7.55 | 89 to 90 °C |
| O=C(O)COc1c(-c2cccc(Cl)c2)cc(C(=O)NCCCCCCOC(=O)Nc2ccc(Oc3ccccc3)cc2)cc1-c1cccc(Cl)c1 [Example 95, {3,3″-Dichloro-5′-[6-(4-phenoxy-phenylcarbamoyloxy)-hexylcarbamoyl]-[1,1′;3′1″]terphenyl-2′-yloxy}acetic acid] | 6.19 | > 75 °C (dec.) |
| COc1cccc(-c2cccc(-c3cc(OC)cc(C(=O)N(C)CCCCCCCCc4ccccc4)c3)c2OCC(=O)O)c1 [Example 21, {3,3″-Dimethoxy-5″-[methyl-(8-phenyl-octyl)-carbamoyl]-[1,1′;3′,1″]terphenyl-2′-yloxy}-acetic acid] | 6.06 | 148.9 to 149.7 °C |
| O=C(O)COc1c(-c2cccc(C(F)(F)F)c2)cc(C(=O)NCCCCCCc2ccccc2)cc1-c1cccc(C(F)(F)F)c1 [Example 189, [5′-(6-Phenyl-hexylcarbamoyl)-3,3″-bis-trifluoromethyl-[1,1′:3′,1″}terphenyl-2′-yloxy]-acetic acid] | 6.47 | 166.5 to 168.8 °C |
| CCCCCCCCOc1cc(-c2cccc([N+](=O)[O-])c2)c(OCC(=O)O)c(-c2cccc([N+](=O)[O-])c2)c1 [Example 49, (3,3″-Dinitro-5′-octyloxy-[1,1′;3′,1″]terphenyl-2′-yloxy)acetic acid] | 6.40 | 129 to 132 °C |
| N#Cc1cccc(OCCCCCCCCNC(=O)c2cc(-c3cccc(Cl)c3)c(OCC(=O)O)c(-c3cccc(Cl)c3)c2)c1 [Example 89, {3,3″-Dichloro-5′-[8-(3-cyano-phenoxy)-octylcarbamoyl]-[1,1′;3′1″]terphenyl-2′-yloxy}acetic acid] | 6.76 | > 61 °C (dec.) |
| Cc1cc(C)cc(-c2cc(C(=O)NCCCCCCCc3ccccc3)cc(-c3cc(C)cc(C)c3)c2OCCCC(=O)O)c1 [Example 148, 4-[3,5,3″,5″-Tetramethyl-5′-(7-phenyl-heptylcarbamoyl)-[1,1′:3′,1″]terphenyl-2′-yloxy]-butyric acid] | 6.60 | 64 to 66 °C |
| O=C(O)COc1c(-c2cccc(Cl)c2)cc(C(=O)NCCCCCCCCn2ccc3ccccc32)cc1-c1cccc(Cl)c1 [Example 88, [3,3″-Dichloro-5′-(8-indol-1-yl-octylcarbamoyl)-[1,1′;3′1″]terphenyl-2′-yloxy]acetic acid] | 6.86 | > 84 °C (dec.) |
| CN(CCCCCCCCc1ccccc1)C(=O)c1cc(-c2cccc(F)c2)c(OCC(=O)O)c(-c2cccc(F)c2)c1 [Example 84] | 5.99 | > 43 °C (dec.) |
| CC(C)(COc1c(-c2cccc(C(F)(F)F)c2)cc(C(=O)NCCCCCCCc2ccccc2)cc1-c1cccc(C(F)(F)F)c1)C(=O)O [Example 129, 2,2-Dimethyl-3-[5′-(7-phenyl-heptylcarbamoyl)-3,3″-bis-trifluoromethyl-[1,1′:3′,1″]terphenyl-2′-yloxy]-propionic acid] | 6.79 | 130 to 132 °C |
| CCCCCCCCCCCCCCCCCCOc1cc(-c2ccccc2)c(OCC(=O)O)c(-c2ccccc2)c1 [Example 36, (5′-Octadecyloxy-[1,1′;3′,1″]terphenyl-2′-yloxy)-acetic acid] | 7.62 | 90.5 to 92 °C |
| CCCCCCCCCCCCNC(=O)c1cc(-c2ccc(OC)cc2)c(OCC(=O)O)c(-c2ccc(OC)cc2)c1 [Example 9, (5′-Dodecylcarbamoyl-4,4″-dimethoxy-[1,1′;3′,1″]terphenyl-2′-yloxy)-acetic acid] | 6.78 | 65 to 68 °C |
| CN(CCCCCCCCc1ccccc1)C(=O)c1cc(-c2cccc(Cl)c2)c(OCC(=O)O)c(-c2cccc(Cl)c2)c1 [Example 82, {3,3″-Dichloro-5′-[methyl-(8-phenyl-octyl)-carbamoyl]-[1,1′;3′1″]terphenyl-2′-yloxy}acetic acid] | 6.75 | > 44 °C (dec.) |
| CC(C)(C)c1ccc(COCCCCCCNC(=O)c2cc(-c3cccc(C(F)(F)F)c3)c(OCC(=O)O)c(-c3cccc(C(F)(F)F)c3)c2)cc1 [Example 13, {5′-[6-(4-tert-Butyl-benzyloxy)-hexylcarbamoyl]-3,3″-bis-trifluoromethyl-[1,1′;3′,1″]terphenyl-2′-yloxy}-acetic acid] | 6.49 | 156 to 158 °C |
| CCCCCCCCCCCCNC(=O)c1cc(-c2ccccc2)c(OCC(=O)O)c(-c2ccccc2)c1 [Example 8, (5′-Dodecylcarbamoyl-[1,1′;3′,1″]terphenyl-2′-yloxy)-acetic acid] | 6.71 | 150 to 153 °C |
| O=C(O)COc1c(-c2cccc(Cl)c2)cc(C(=O)NCC2(COCCCCc3ccccc3)CC2)cc1-c1cccc(Cl)c1 [Example 100, (3,3″-Dichloro-5′-{[1-(4-phenyl-butoxymethyl)-cyclopropylmethyl]-carbamoyl}-[1,1′;3′1″]terphenyl-2′-yloxy)acetic acid] | 6.41 | > 52 °C (dec.) |
| CCCCCCCCCCCCNC(=O)c1cc(-c2cccc(C(F)(F)F)c2)c(OCC(=O)O)c(-c2cccc(C(F)(F)F)c2)c1 [Example 175, (5′-Dodecylcarbamoyl-3,3″-bis-trifluoromethyl-{1,1′;3′,1″]terphenyl-2′-yloxy)-acetic acid] | 7.30 | 154.3 to 158.2 °C |
| O=C(O)COc1c(-c2cccc(Cl)c2)cc(C(=O)NCCCCCCCCOCc2ccc(Cl)cc2)cc1-c1cccc(Cl)c1 [Example 90, {3,3″-Dichloro-5′-[8-(4-chloro-benzyloxy)-octylcarbamoyl]-[1,1′;3′1″]terphenyl-2′-yloxy}acetic acid] | 7.00 | 128 to 131 °C |
| CCCCCCCCCCCCCCCCNc1c(Nc2cc(-c3ccccc3)c(OCC(=O)O)c(-c3ccccc3)c2)c(=O)c1=O [Example 32, [5′-(2-Hexadecylamino-3,4-dioxo-cyclobut-1-enylamino)-[1,1′;3′,1″]terphenyl-2′-yloxy]-acetic acid] | 7.77 | 132.5 to 133.7 °C |
| CCCCCCCCOc1cc(-c2cccc(Cl)c2)c(OCC(=O)O)c(-c2cccc(Cl)c2)c1 [Example 46, (3,3″-Dichloro-5′-octyloxy-[1,1′;3′,1″]terphenyl-2′-yloxy)acetic acid] | 6.92 | 113 to 115.5 °C |
| COc1ccc2c(c1)cc(C)n2CCCCCCCCNC(=O)c1cc(-c2cccc(Cl)c2)c(OCC(=O)O)c(-c2cccc(Cl)c2)c1 [Example 99, {3,3″-Dichloro-5′-[8-(5-methoxy-2-methyl-indol-1-yl)-octylcarbamoyl]-[1,1′;3′1″]-terphenyl-2′-yloxy}acetic acid] | 6.57 | > 75 °C (dec.) |
| O=C(O)COc1c(-c2ccccc2)cc([N+](=O)[O-])cc1-c1ccccc1 [Example 38, (5′-Nitro-[1,1′;3′,1″]terphenyl-2′-yloxy)-acetic acid] |  | 153.5 to 156 °C |
| O=C(O)c1ccc(COc2c(-c3cccc(C(F)(F)F)c3)cc(C(=O)NCCCCCCCc3ccccc3)cc2-c2cccc(C(F)(F)F)c2)cc1 (hydrate or solvate) [Example 134, 4-[5′-(7-Phenyl-heptylcarbamoyl)-3,3″-bis-trifluoromethyl-[1,1′:3′,1″]terphenyl-2′-yloxymethyl]-benzoic acid] |  | 89 to 91 °C |
| O=C(O)COc1c(-c2cccc(Cl)c2)cc(C(=O)NCCc2ccc(Br)cc2)cc1-c1cccc(C(F)(F)F)c1 [Example 63, {5′-[2-(4-Bromo-phenyl)-ethylcarbamoyl]-3″-chloro-3-trifluoromethyl-[1,1′;3′,1″]-terphenyl-2′-yloxy}acetic acid] |  | > 102 °C (dec.) |
